# Target: EZH2 (Homo sapiens, UniProt Q15910)
# Experiment: EZH2 assay: rPRC2 with biotinylated oligonucleosome substrates and 3H SAM, FlashPlate scintillation counting, IC50
# Assay type: biochemical
# Conditions: rPRC2, biotinylated oligonucleosome substrates, 3H SAM; read-out: EZH2 IC50
# Method in brief: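 rPRC2 (2 nM EZH2) pre-incubated 20 min with compound (80 to 0.16 uM, ten 2-fold steps), then 60 min reaction with 0.2 uM 3H SAM, 0.2 uM biotinylated oligonucleosomes, 3.6 uM H3K27me3 peptide in Tris pH 8.5. SAH/EDTA quench; 4-parameter IC50 fit.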
# Sequence of EZH2 (Q15910 whole entry): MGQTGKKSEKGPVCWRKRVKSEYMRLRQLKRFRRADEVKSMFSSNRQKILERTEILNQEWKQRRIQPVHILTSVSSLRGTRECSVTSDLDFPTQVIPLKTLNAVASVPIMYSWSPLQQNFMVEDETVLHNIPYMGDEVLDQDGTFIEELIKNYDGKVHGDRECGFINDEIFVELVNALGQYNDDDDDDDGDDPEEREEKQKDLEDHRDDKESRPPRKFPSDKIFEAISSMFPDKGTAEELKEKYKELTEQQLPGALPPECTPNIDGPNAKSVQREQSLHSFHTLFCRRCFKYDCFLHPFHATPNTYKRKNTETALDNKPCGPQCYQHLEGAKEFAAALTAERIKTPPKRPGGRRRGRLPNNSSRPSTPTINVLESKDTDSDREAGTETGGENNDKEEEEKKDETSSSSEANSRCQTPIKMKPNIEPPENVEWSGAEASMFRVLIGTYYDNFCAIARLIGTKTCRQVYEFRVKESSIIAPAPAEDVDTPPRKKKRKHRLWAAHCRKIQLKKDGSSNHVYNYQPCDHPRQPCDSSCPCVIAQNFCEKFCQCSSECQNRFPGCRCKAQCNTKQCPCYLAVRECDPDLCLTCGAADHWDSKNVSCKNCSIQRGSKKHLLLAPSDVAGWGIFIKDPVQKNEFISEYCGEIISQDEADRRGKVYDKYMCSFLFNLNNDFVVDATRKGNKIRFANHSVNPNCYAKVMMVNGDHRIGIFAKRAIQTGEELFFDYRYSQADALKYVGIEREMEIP
# Sequence of EZH2 (O75530 whole entry partner): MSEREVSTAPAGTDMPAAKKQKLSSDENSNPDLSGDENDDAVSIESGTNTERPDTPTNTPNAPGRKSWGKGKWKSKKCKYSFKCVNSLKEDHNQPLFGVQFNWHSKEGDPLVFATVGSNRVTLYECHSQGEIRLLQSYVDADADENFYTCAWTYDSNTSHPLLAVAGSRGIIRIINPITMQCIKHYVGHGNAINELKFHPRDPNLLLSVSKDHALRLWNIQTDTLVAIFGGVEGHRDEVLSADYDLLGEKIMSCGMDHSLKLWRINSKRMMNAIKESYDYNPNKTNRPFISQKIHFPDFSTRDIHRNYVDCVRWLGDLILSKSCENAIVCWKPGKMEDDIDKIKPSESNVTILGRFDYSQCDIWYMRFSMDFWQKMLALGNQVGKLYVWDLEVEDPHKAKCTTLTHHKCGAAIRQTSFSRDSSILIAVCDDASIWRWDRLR
# Sequence of EZH2 (Q15022 whole entry partner): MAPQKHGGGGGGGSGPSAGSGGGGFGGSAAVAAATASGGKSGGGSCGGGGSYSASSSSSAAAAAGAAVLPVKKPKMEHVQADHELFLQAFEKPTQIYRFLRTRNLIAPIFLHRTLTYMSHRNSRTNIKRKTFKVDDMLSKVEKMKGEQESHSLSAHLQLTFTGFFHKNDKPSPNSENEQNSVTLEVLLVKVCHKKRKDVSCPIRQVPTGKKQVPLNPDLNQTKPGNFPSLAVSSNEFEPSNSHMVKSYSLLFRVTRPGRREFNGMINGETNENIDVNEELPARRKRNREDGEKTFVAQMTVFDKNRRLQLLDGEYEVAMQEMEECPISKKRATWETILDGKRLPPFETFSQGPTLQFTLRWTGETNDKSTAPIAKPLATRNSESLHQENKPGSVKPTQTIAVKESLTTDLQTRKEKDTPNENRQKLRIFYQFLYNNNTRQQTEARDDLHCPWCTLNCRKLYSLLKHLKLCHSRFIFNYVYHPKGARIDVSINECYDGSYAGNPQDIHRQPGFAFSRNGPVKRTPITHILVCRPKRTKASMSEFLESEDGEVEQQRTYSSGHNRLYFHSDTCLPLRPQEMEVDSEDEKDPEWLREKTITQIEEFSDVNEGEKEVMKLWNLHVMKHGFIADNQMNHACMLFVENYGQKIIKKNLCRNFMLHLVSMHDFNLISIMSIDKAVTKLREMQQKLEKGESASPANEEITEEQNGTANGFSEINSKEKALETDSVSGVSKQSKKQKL
row,Compound,IC50
1,CC(C)Oc1ccc(C(=O)NC2CC(C)(C)NC(C)(C)C2)cc1 [Compound I-136],> 80 µM
2,CC1(C)CC(NC(=O)c2ccc(Oc3ccccc3)cc2)CC(C)(C)N1 [Compound I-52],20 to 80 µM
3,CC1(C)CC(NC(=O)c2ccc(Oc3cnccn3)cc2)CC(C)(C)N1 [Compound I-78],> 80 µM
4,COc1ccc(-c2cccc(Oc3ccc(C(=O)NC4CC(C)(C)NC(C)(C)C4)cc3Cl)c2C#N)cn1 [Compound I-366],< 5 µM
5,CC1(C)CC(NC(=O)c2ccc(COc3ccccc3)cc2)CC(C)(C)N1 [Compound I-39],20 to 80 µM
6,CC1(C)CC(NC(=O)c2ccc(Oc3ncccc3C#N)c(Br)c2)CC(C)(C)N1 [Compound I-220],< 5 µM
7,CC(O)c1ccccc1Oc1ccc(C(=O)NC2CC(C)(C)NC(C)(C)C2)cc1Cl (centres unmarked) [Compound I-455],5 to 20 µM
8,"CC1(C)CC(NC(=O)c2ccc(Oc3ccccc3)c(Cl)c2)CC(C)(C)N1 [Compound I-49, 3-chloro-N-(2,2,6,6-tetramethylpiperidin-4-yl)-4-phenoxybenzamide]",20 to 80 µM
9,"COc1ccc(Oc2ccc(C(=O)NC3CC(C)(C)NC(C)(C)C3)cc2)c(C(=O)O)c1 [Compound I-120, 2-(4-(2,2,6,6-tetramethylpiperidin-4-ylcarbamoyl)phenoxy)-5-methoxy benzoic acid]",> 80 µM
10,CC1(C)CC(NC(=O)c2ccc(Oc3ccccc3C#N)c(Cl)c2)C(F)(F)C(C)(C)N1 (centres unmarked) [Compound I-418],20 to 80 µM
11,CC1(C)CC(NC(=O)c2ccc(C3(c4ccccc4)CC3)cc2)CC(C)(C)N1 [Compound I-437],> 80 µM
12,CC1(C)CC(NC(=O)c2ccc(CCOc3ccccc3)cc2)CC(C)(C)N1 [Compound I-292],> 80 µM
13,CC1(C)CC(NC(=O)c2ccc(COc3cccc(-c4cn[nH]c4)c3)cc2)CC(C)(C)N1 [Compound I-12],5 to 20 µM
14,CC1(C)CC(NC(=O)c2ccc(OCc3ccccc3F)cc2)CC(C)(C)N1 [Compound I-90],> 80 µM
15,CC1(C)CC(NC(=O)c2ccc(Oc3ccccc3C#N)c(-c3cccnc3)c2)CC(C)(C)N1 [Compound I-211],< 5 µM
16,CC1(C)CC(NC(=O)c2ccc(COc3cccc(-c4cccc(O)c4)c3)cc2)CC(C)(C)N1 [Compound I-30],20 to 80 µM
17,CC1(C)CC(NC(=O)c2ccc(Oc3cncc(-c4ccncc4)c3C#N)c(Cl)c2)CC(C)(C)N1 [Compound I-520],< 5 µM
18,CC1(C)CC(NC(=O)c2ccc(Oc3cccc(-c4ccc(C(N)=O)nc4)c3C#N)c(Cl)c2)CC(C)(C)N1 [Compound I-527],< 5 µM
19,CCc1cccc(Oc2ccc(C(=O)NC3CC(C)(C)NC(C)(C)C3)cc2Cl)c1C#N [Compound I-310],< 5 µM
20,CC1(C)CC(NC(=O)c2ccc(Oc3ccccc3C(=O)NCc3ccccc3)c(Cl)c2)CC(C)(C)N1 [Compound I-286],5 to 20 µM
21,CC1(C)CC(NC(=O)c2ccc(Oc3nccc4ccccc34)c(Cl)c2)CC(C)(C)N1 [Compound I-242],20 to 80 µM
22,CC1(C)CC(NC(=O)c2ccc(Oc3cccc4ncccc34)cc2)CC(C)(C)N1 [Compound I-222],> 80 µM
23,CC1(C)CC(NC(=O)c2ccc(Oc3ccccc3C#N)c(-c3cn[nH]c3)c2)CC(C)(C)N1 [Compound I-213],< 5 µM
24,CC(C)c1ccc(C(=O)NC2CC(C)(C)NC(C)(C)C2)cc1 [Compound I-135],> 80 µM

row,Compound,IC50
1,COC(=O)c1cncc(-c2ccccc2Oc2ccc(C(=O)NC3CC(C)(C)NC(C)(C)C3)cc2Cl)c1 [Compound I-322],< 5 µM
2,Cc1cc(C(=O)NC2CC(C)(C)NC(C)(C)C2)ccc1Oc1ccccc1C(C)C [Compound I-332],5 to 20 µM
3,"CC1(C)CC(NC(=O)c2ccc(SCc3ccccc3)cc2)CC(C)(C)N1 [Compound I-45, 4-(Benzylthio)-N-(2,2,6,6-tetramethylpiperidin-4-yl)benzamide]",20 to 80 µM
4,CCC(C)c1ccccc1Oc1ccc(C(=O)NC2CC(C)(C)NC(C)(C)C2)cc1 (centres unmarked) [Compound I-170],5 to 20 µM
5,CC1(C)CC(NC(=O)c2ccc(S(=O)(=O)c3ccccc3)cc2)CC(C)(C)N1 [Compound I-357],> 80 µM
6,Cn1cc(-c2cccc(Oc3ccc(C(=O)NC4CC(C)(C)NC(C)(C)C4)cc3Cl)c2C#N)ccc1=O [Compound I-476],< 5 µM
7,CC1(C)CC(NC(=O)N2CCN(Cc3ccccc3C#N)CC2)CC(C)(C)N1 [Compound I-438],> 80 µM
8,CN1CCN(c2ccc(-c3cccc(Oc4ccc(C(=O)NC5CC(C)(C)NC(C)(C)C5)cc4Cl)c3C#N)cn2)CC1 [Compound I-550],< 5 µM
9,CC1(C)CC(NC(=O)c2ccc(Oc3ccccc3-c3cccnc3N)c(Cl)c2)CC(C)(C)N1 [Compound I-271],5 to 20 µM
10,CC1(C)CC(NC(=O)c2ccc(Oc3cccc(CC#N)c3)c(Cl)c2)CC(C)(C)N1 [Compound I-451],< 5 µM
11,CC(C#N)c1cccc(Oc2ccc(C(=O)NC3CC(C)(C)NC(C)(C)C3)cc2Cl)c1 (centres unmarked) [Compound I-479],20 to 80 µM
12,CC1(C)CC(NC(=O)c2ccc(COc3ccnc4ccccc34)cc2)CC(C)(C)N1 [Compound I-128],> 80 µM
13,CC1(C)CC(NC(=O)c2ccc(Oc3cccnc3)cc2)CC(C)(C)N1 [Compound I-21],20 to 80 µM
14,CC1(C)CC(NC(=O)c2ccc(COc3cccc(-c4cccc(C#N)c4)c3)cc2)CC(C)(C)N1 [Compound I-51],20 to 80 µM
15,C#Cc1cccc(OCc2ccc(C(=O)NC3CC(C)(C)NC(C)(C)C3)cc2)c1 [Compound I-184],< 5 µM
16,Cc1ccc(Oc2ccc(C(=O)NC3CC(C)(C)NC(C)(C)C3)cc2)c(C#N)c1 [Compound I-156],> 80 µM
17,CC1(C)CC(NC(=O)c2ccc(C3=NCC(=O)Nc4ccccc43)cc2)CC(C)(C)N1 [Compound I-436],> 80 µM
18,CC1(C)CC(NC(=O)c2ccc(OCc3ccc([N+](=O)[O-])cc3)cc2)CC(C)(C)N1 [Compound I-81],> 80 µM
19,CC1(C)CC(NC(=O)c2ccc(Oc3ccccc3Cc3ccccc3)cc2)CC(C)(C)N1 [Compound I-149],5 to 20 µM
20,CC1CC(NC(=O)c2ccc(Oc3cccc(-c4ccnnc4)c3C#N)c(Cl)c2)CC(C)(C)N1 (centres unmarked) [Compound I-478],< 5 µM
21,CC1(C)CC(NC(=O)c2ccc(COc3cccc(-c4ccc(NCCN5CCOCC5)nc4)c3)cc2)CC(C)(C)N1 [Compound I-129],> 80 µM
22,COc1ccncc1-c1ccccc1Oc1ccc(C(=O)NC2CC(C)(C)NC(C)(C)C2)cc1Cl [Compound I-280],> 80 µM
23,"Cc1cccc(OCc2ccc(C(=O)NC3CC(C)(C)NC(C)(C)C3)cc2)c1 [Compound I-46, N-(2,2,6,6-tetramethylpiperidin-4-yl)-4-(m-tolyloxymethyl)benzamide]",20 to 80 µM
24,N#Cc1c(Oc2ccc(C(=O)NC3CCN(CCO)CC3)cc2Cl)cccc1-c1ccnnc1 [Compound I-474],20 to 80 µM

row,Compound,IC50
1,CC1CC(NC(=O)c2ccc(Oc3cccc(-c4ccnnc4)c3C#N)c(Cl)c2)CC(C)N1 (centres unmarked) [Compound I-472],< 5 µM
2,CC1(C)CC(NC(=O)c2ccc(Oc3c(F)cccc3C#N)cc2)CC(C)(C)N1 [Compound I-159],20 to 80 µM
3,CC1(C)CC(NC(=O)c2ccc(COc3cccc(-c4cccnc4N)c3)cc2)CC(C)(C)N1 [Compound I-47],20 to 80 µM
4,CC1(C)CC(NC(=O)c2ccc(COc3cccc(-c4ccc(NC(=O)C5CC5)nc4)c3)cc2)CC(C)(C)N1 [Compound I-153],20 to 80 µM
5,CC1(C)CC(NC(=O)c2ccc(Oc3ccccc3C#N)c(Cl)c2)CC(c2ccccc2)N1 (centres unmarked) [Compound I-409],20 to 80 µM
6,CC1CC(NC(=O)c2ccc(Oc3ccccc3C#N)c(Cl)c2)CC(C)N1 (centres unmarked) [Compound I-467],20 to 80 µM
7,CN(C)Cc1ccccc1Oc1ccc(C(=O)NC2CC(C)(C)NC(C)(C)C2)cc1 [Compound I-275],> 80 µM
8,Cn1cc(-c2cccc(Oc3ccc(C(=O)NC4CC(C)(C)NC(C)(C)C4)cc3Cl)c2C#N)cn1 [Compound I-336],< 5 µM
9,CC(O)c1cccc(Oc2ccc(C(=O)NC3CC(C)(C)NC(C)(C)C3)cc2Cl)c1-c1ccncc1 (centres unmarked) [Compound I-400],5 to 20 µM
10,Cc1cccc(C)c1Oc1ccc(C(=O)NC2CC(C)(C)NC(C)(C)C2)cc1 [Compound I-69],> 80 µM
11,CC1(C)CC(NC(=O)c2ccc(Oc3cccc(C4CCOC4)c3C#N)c(Cl)c2)CC(C)(C)N1 (centres unmarked) [Compound I-530],< 5 µM
12,CC1(C)CC(NC(=O)c2ccc(Oc3cc(Br)ccc3C#N)c(Cl)c2)CC(C)(C)N1 [Compound I-255],< 5 µM
13,CC1(C)CC(NC(=O)c2ccc(Oc3cccc4nccn34)c(Cl)c2)CC(C)(C)N1 [Compound I-372],5 to 20 µM
14,CC1(C)CC(NC(=O)c2ccc(Oc3cccc(C4CCNCC4)c3C#N)c(Cl)c2)CC(C)(C)N1 [Compound I-535],< 5 µM
15,COc1ccnc(Oc2ccc(C(=O)NC3CC(C)(C)NC(C)(C)C3)cc2)n1 [Compound I-109],> 80 µM
16,CC1(C)CC(NC(=O)c2ccc(Oc3ccc(F)cc3C#N)cc2)CC(C)(C)N1 [Compound I-157],20 to 80 µM
17,COc1cncc(-c2ccccc2Oc2ccc(C(=O)NC3CC(C)(C)NC(C)(C)C3)cc2Cl)c1 [Compound I-288],< 5 µM
18,CC1(C)CC(NC(=O)c2ccc(Oc3cccc(-c4cccc(C#N)c4)c3C#N)c(Cl)c2)CC(C)(C)N1 [Compound I-505],< 5 µM
19,CC1(C)CC(NC(=O)c2ccc(Oc3ccccc3OCc3ccccc3)c(Cl)c2)CC(C)(C)N1 [Compound I-194],< 5 µM
20,CC1(C)CC(NC(=O)c2ccc(OC3CCCC3)cc2)CC(C)(C)N1 [Compound I-299],> 80 µM
21,CC1(C)CC(NC(=O)c2ccc(Oc3cccc(-c4cccnc4N)c3C#N)c(Cl)c2)CC(C)(C)N1 [Compound I-361],5 to 20 µM
22,CC1(C)CC(NC(=O)c2ccc(Oc3ccccc3C#N)c(Cl)c2)CC(C)(C)N1CC(=O)O [Compound I-424],> 80 µM
23,CC1(C)CC(NC(=O)c2ccc(Oc3ccccc3OCc3ccncc3)cc2)CC(C)(C)N1 [Compound I-209],5 to 20 µM

# From patent US20130310379A1, “MODULATORS OF METHYL MODIFYING ENZYMES, COMPOSITIONS AND USES THEREOF” (CONSTELLATION PHARMACEUTICALS, priority 2010, published 2013)
